Tested on: HIV in the HTLV-1 transformed cell line MT-4
Experiment: organism not typed
Type: cell-based
Details: MT-4 cells, luciferase/cell titer glo readout after 96 hours, 10 point dose response

Compound | IC50 (MT4, 96 h) | IC50
Cc1ccc(-c2c(C)c3c(c(C)c2[C@H](OC(C)(C)C)C(=O)O)CN(C(=O)N2CCC[C@H]2C)C3)cc1 [Example 292, (S)-2-(tert-butoxy)-2-(4,7-dimethyl-2-((R)-2-methylpyrrolidine-1-carbonyl)-6-(p-tolyl)isoindolin-5-yl)acetic acid] | 5 nM | 
Cc1ccc(-c2c(C)c3c(c(C)c2[C@H](OC(C)(C)C)C(=O)O)CN(C(=O)N2CCCC[C@@H]2C)C3)cc1 [Example 293, (S)-2-(tert-butoxy)-2-(4,7-dimethyl-2-((S)-2-methylpiperidine-1-carbonyl)-6-(p-tolyl)isoindolin-5-yl)acetic acid] | 4 nM | 
Cc1ccc(-c2c(C)c3c(c(C)c2[C@H](OC(C)(C)C)C(=O)O)CN(C(=O)N2CC[C@H](F)C2)C3)cc1 [Example 294, (S)-2-(tert-butoxy)-2-(2-((S)-3-fluoropyrrolidine-1-carbonyl)-4,7-dimethyl-6-(p-tolyl)isoindolin-5-yl)acetic acid] | 4 nM | 
Cc1c2c(c(C)c([C@H](OC(C)(C)C)C(=O)O)c1-c1ccc3c4c(ccnc14)CCO3)CN(C(=O)c1cccc(F)c1)C2 [Example 299, (2S)-2-(tert-butoxy)-2-(6-(2,3-dihydropyrano[4,3,2-de]quinolin-7-yl)-2-(3-fluorobenzoyl)-4,7-dimethylisoindolin-5-yl)acetic acid] | 14 nM | 
Cc1c2c(c(C)c([C@H](OC(C)(C)C)C(=O)O)c1C1=CCC(C)(C)CC1)CN(C(=O)c1cccc(F)c1)C2 [Example 302, (S)-2-(tert-butoxy)-2-(6-(4,4-dimethylcyclohex-1-en-1-yl)-2-(3-fluorobenzoyl)-4,7-dimethylisoindolin-5-yl)acetic acid] | 4 nM | 
Cc1c(-c2c(C)c3c(c(C)c2[C@H](OC(C)(C)C)C(=O)O)CN(C(=O)c2cccc(F)c2)C3)ccc2c1NCCO2 [Example 303, (2S)-2-(tert-butoxy)-2-(2-(3-fluorobenzoyl)-4,7-dimethyl-6-(5-methyl-3,4-dihydro-2H-benzo[b][1,4]oxazin-6-yl)isoindolin-5-yl)acetic acid] |  | 5 nM
Cc1c2c(c(C)c([C@H](OC(C)(C)C)C(=O)O)c1-c1ccc3c(c1)CCCO3)CN(C(=O)c1cccc(F)c1)C2 [Example 304, (S)-2-(tert-butoxy)-2-(6-(chroman-6-yl)-2-(3-fluorobenzoyl)-4,7-dimethylisoindolin-5-yl)acetic acid] | 4 nM | 
Cc1c(-c2c(C)c3c(c(C)c2[C@H](OC(C)(C)C)C(=O)O)CN(C(=O)c2cccc(F)c2)C3)ccc2c1CCCO2 [Example 305, (2S)-2-(tert-butoxy)-2-(2-(3-fluorobenzoyl)-4,7-dimethyl-6-(5-methylchroman-6-yl)isoindolin-5-yl)acetic acid] | 2 nM | 
Cc1c2c(c(C)c([C@H](OC(C)(C)C)C(=O)O)c1C1=CCC(C)(C)CC1)CN(C(=O)c1cccc3c1OCO3)C2 [Example 307, (S)-2-(2-(benzo[d][1,3]dioxole-4-carbonyl)-6-(4,4-dimethylcyclohex-1-en-1-yl)-4,7-dimethylisoindolin-5-yl)-2-(tert-butoxy)acetic acid] | 4 nM | 
Cc1c2c(c(C)c([C@H](OC(C)(C)C)C(=O)O)c1-c1ccc(Cl)cc1)CN(C(=O)c1cccc3c1OCO3)C2 [Example 308, (S)-2-(2-(benzo[d][1,3]dioxole-4-carbonyl)-6-(4-chlorophenyl)-4,7-dimethylisoindolin-5-yl)-2-(tert-butoxy)acetic acid] | 4 nM | 
Cc1ccc(-c2c(C)c3c(c(C)c2[C@H](OC(C)(C)C)C(=O)O)CN(C(=O)c2cccc4c2OCO4)C3)c(Cl)c1 [Example 309, (2S)-2-(2-(benzo[d][1,3]dioxole-4-carbonyl)-6-(2-chloro-4-methylphenyl)-4,7-dimethylisoindolin-5-yl)-2-(tert-butoxy)acetic acid] | 4 nM | 
Cc1c(-c2c(C)c3c(c(C)c2[C@H](OC(C)(C)C)C(=O)O)CN(C(=O)c2cccc4c2OCO4)C3)cc(F)c2c1NCCO2 [Example 310, (2S)-2-(2-(benzo[d][1,3]dioxole-4-carbonyl)-6-(8-fluoro-5-methyl-3,4-dihydro-2H-benzo[b][1,4]oxazin-6-yl)-4,7-dimethylisoindolin-5-yl)-2-(tert-butoxy)acetic acid] | 18 nM | 
Cc1c(-c2c(C)c3c(c(C)c2[C@H](OC(C)(C)C)C(=O)O)CN(C(=O)c2cccc(F)c2)C3)ccc2c1NCCO2 [Example 311, (2S)-2-(tert-butoxy)-2-(2-(3-fluorobenzoyl)-4,7-dimethyl-6-(5-methyl-3,4-dihydro-2H-benzo[b][1,4]oxazin-6-yl)isoindolin-5-yl)acetic acid] |  | 15 nM
Cc1c2c(c(C)c([C@H](OC(C)(C)C)C(=O)O)c1-c1ccc3c(c1)CCCO3)CN(C(=O)N1CCC(F)(F)C1)C2 [Example 313, (S)-2-(tert-butoxy)-2-(6-(chroman-6-yl)-2-(3,3-difluoropyrrolidine-1-carbonyl)-4,7-dimethylisoindolin-5-yl)acetic acid] | 4 nM | 
Cc1ccc(-c2c(C)c3c(c(C)c2[C@H](OC(C)(C)C)C(=O)O)CN(C(=O)N2CCC(F)(F)C2)C3)c(Cl)c1 [Example 314, (2S)-2-(tert-butoxy)-2-(6-(2-chloro-4-methylphenyl)-2-(3,3-difluoropyrrolidine-1-carbonyl)-4,7-dimethylisoindolin-5-yl)acetic acid] | 4 nM | 
Cc1c(-c2c(C)c3c(c(C)c2[C@H](OC(C)(C)C)C(=O)O)CN(C(=O)N2CCC(F)(F)C2)C3)cc(F)c2c1NCCO2 [Example 315, (2S)-2-(tert-butoxy)-2-(2-(3,3-difluoropyrrolidine-1-carbonyl)-6-(8-fluoro-5-methyl-3,4-dihydro-2H-benzo[b][1,4]oxazin-6-yl)-4,7-dimethylisoindolin-5-yl) acetic acid] | 15 nM | 
Cc1ccc(-c2c(C)c3c(c(C)c2[C@H](OC(C)(C)C)C(=O)O)CN(C(=O)N2CCCCC2)C3)c(Cl)c1 [Example 316, (2S)-2-(tert-butoxy)-2-(6-(2-chloro-4-methylphenyl)-4,7-dimethyl-2-(piperidine-1-carbonyl)isoindolin-5-yl)acetic acid] |  | 41 nM
Cc1c2c(c(C)c([C@H](OC(C)(C)C)C(=O)O)c1-c1ccc3c(c1)CCCO3)CN(C(=O)N1CCCCC1)C2 [Example 317, (S)-2-(tert-butoxy)-2-(6-(chroman-6-yl)-4,7-dimethyl-2-(piperidine-1-carbonyl)isoindolin-5-yl)acetic acid] | 3 nM | 
Cc1c(-c2c(C)c3c(c(C)c2[C@H](OC(C)(C)C)C(=O)O)CN(C(=O)N2CCCCC2)C3)cc(F)c2c1NCCO2 [Example 318, (2S)-2-(tert-butoxy)-2-(6-(8-fluoro-5-methyl-3,4-dihydro-2H-benzo[b][1,4]oxazin-6-yl)-4,7-dimethyl-2-(piperidine-1-carbonyl)isoindolin-5-yl)acetic acid] | 5 nM | 
Cc1c(-c2c(C)c3c(c(C)c2[C@H](OC(C)(C)C)C(=O)O)CN(C(=O)N2CCCCC2)C3)ccc2c1NCCO2 [Example 319, (2S)-2-(tert-butoxy)-2-(4,7-dimethyl-6-(5-methyl-3,4-dihydro-2H-benzo[b][1,4]oxazin-6-yl)-2-(piperidine-1-carbonyl)isoindolin-5-yl)acetic acid] | 4 nM | 
Cc1c(-c2c(C)c3c(c(C)c2[C@H](OC(C)(C)C)C(=O)O)CN(C(=O)N2CCC(F)(F)C2)C3)ccc2c1CCCO2 [Example 320, (2S)-2-(tert-butoxy)-2-(2-(3,3-difluoropyrrolidine-1-carbonyl)-4,7-dimethyl-6-(5-methylchroman-6-yl)isoindolin-5-yl)acetic acid] | 3 nM | 
Cc1c(-c2c(C)c3c(c(C)c2[C@H](OC(C)(C)C)C(=O)O)CN(C(=O)N2CCCCC2)C3)ccc2c1CCCO2 [Example 321, (2S)-2-(tert-butoxy)-2-(4,7-dimethyl-6-(5-methylchroman-6-yl)-2-(piperidine-1-carbonyl)isoindolin-5-yl)acetic acid] | 2 nM | 
Cc1ccc(-c2c(C)c3c(c(C)c2[C@H](OC(C)(C)C)C(=O)O)CN(C(=O)N2CCCCC2)C3)c(Cl)c1 [Example 322, (2S)-2-(tert-butoxy)-2-(6-(2-chloro-4-methylphenyl)-4,7-dimethyl-2-(piperidine-1-carbonyl)isoindolin-5-yl)acetic acid] |  | 5 nM
Cc1cc(Cl)ccc1-c1c(C)c2c(c(C)c1C(OC(C)(C)C)C(=O)O)CN(C(=O)N1CCC(F)(F)C1)C2 (centres unmarked) [Example 323, 2-(tert-butoxy)-2-(6-(4-chloro-2-methylphenyl)-2-(3,3-difluoropyrrolidine-1-carbonyl)-4,7-dimethylisoindolin-5-yl)acetic acid] | 13 nM | 
Cc1cc(Cl)ccc1-c1c(C)c2c(c(C)c1[C@H](OC(C)(C)C)C(=O)O)CN(C(=O)C1CCCCC1)C2 [Example 324, (2S)-2-(tert-butoxy)-2-(6-(4-chloro-2-methylphenyl)-2-(cyclohexanecarbonyl)-4,7-dimethylisoindolin-5-yl)acetic acid] | 13 nM | 
Cc1cc(Cl)ccc1-c1c(C)c2c(c(C)c1[C@H](OC(C)(C)C)C(=O)O)CN(C(=O)CC(C)(C)C)C2 [Example 325, (2S)-2-(tert-butoxy)-2-(6-(4-chloro-2-methylphenyl)-2-(3,3-dimethylbutanoyl)-4,7-dimethylisoindolin-5-yl)acetic acid] | 13 nM | 

From patent US10112899B2 (ViiV HEALTHCARE UK LIMITED, priority 2014, dated 2018)
